Laboratory results reported in patent US20060128645A1, “Inhibition of proliferation and infiltration of brain tumor cells caused by expression of ampa-type glutamate receptor subunit” (priority 2002, published 2006).

Tests used:
CGNH-89 cells [1] = experiment: ATP-induced [Ca2+]i increase in CGNH-89 cells; format: cell-based, human; conditions: 25 μM ATP; control cells, n=50
Procedure: The present inventors examined whether CGNH-89 cells expressing GluR2 (R) could increase [Ca^2+]i to a similar extent as control cells in response to ATP, which is known to mediate Ca^2+ signaling in glial cells (J. Neurosci., 18, 8794-8804, 1998).
(§1) Cells were loaded with fura 2-AM (Dojin) at room temperature for 40 min. Fluorescence images were obtained at an excitation wavelength of 340 and 380 nm using the Argus/HiSCA system (Hamamatsu Photonics). The 340/380 nm fluorescence ratio was converted to [Ca^2+]i as described previously (Cell, 88, 49-55, 1997).

CGNH-89 cells [2] = experiment: Cell morphology of CGNH-89 glioblastoma cells; format: cell-based, human
[3] = target: T1, Ca^2+-permeable AMPARs in glioblastoma cells in primary culture (Homo sapiens, UniProt P42261); experiment: AMPA-induced [Ca2+]i changes (fura-2 AM) in primary cultured glioblastoma cells; format: cell-based
T1 construct: To examine functional expression of Ca^2+-permeable AMPARs in glioblastoma cells in primary culture; endogenous in cells; host or cells: primary (explant) cultures of glioblastoma multiforme surgical samples
Procedure: as §1

[4] = system: Ca^2+-permeable AMPARs in CGNH-89 cells; experiment: AMPA-induced [Ca2+]i changes (fura-2 AM) in CGNH-89 cells after adenoviral gene transfer; format: cell-based, human; conditions: 200 μM AMPA + 100 μM CTZ
Procedure: In FIGS. 3p˜x, the present inventors confirmed changes in Ca^2+ permeability induced by adenoviral-mediated introduction of GluR2 (R) or GluR2 (Q) in CGNH-89 cells. […] The same treatment had no effect on [Ca^2+]i in cells expressing GluR2 (FIGS. 3s, t and u) in 4 culture dishes, whereas it caused a marked increase in [Ca^2+]i from 77±21 to 1185±240 nM (n=40) in cells expressing GluR2 (Q) in 2 culture dishes (FIGS. 3v, w and x).
(2) AxCANCre and AxCAGFP: recombinant adenoviruses for expression of Cre recombinase and EGFP (Clontech), respectively. Cells were infected at a multiplicity of infection (MOI) of 5 with each of the recombinant adenoviruses 2˜5 days before experiments.
as §1

[5] = system: tumor produced by grafting CGNH-89 cells into the subcutaneous tissue; experiment: Subcutaneous CGNH-89 tumor growth in nude mice; format: in vivo
Source text: To further estimate quantitatively whether manipulation of Ca^2+-permeable AMPARs alters tumor growth in vivo, the present inventors examined effects of GluR2 and GluR2 (Q) expression and/or application of the AMPAR antagonist YM872 on the growth of tumor produced by grafting CGNH-89 cells into the subcutaneous tissue of nude mice (FIG. 6)-(FIGS. 6a and b).
Proliferation of tumor cells expressing GluR2 (Q) was inhibited by application of YM872 (FIGS. 6g, h and i).
In addition, the effect of adenoviral-mediated expression of GluR2 (R) and GluR2 (Q) on tumor growth was evaluated quantitatively in subcutaneous tumors with or without application of YM872, an antagonist for AMPA-type glutamate receptors. Cell suspensions (1×10^7/100 μl) were injected subcutaneously in the flank of nude mice 5˜6 weeks old (body weight, 18˜20 g). Adenoviruses ([…], diluted in a total of 100 μl of PBS) were administered intratumorally once 5 days after tumor inoculation with a 27-gauge needle. AxCALNLGluR2 without AxCANCre was administered for control.
YM872, a kind gift from Yamanouchi Pharmaceutical Company, was dissolved in PBS. […] In this series of experiments, 100 mg/kg YM872 was used. PBS (100 μl) was administered intraperitoneally for control. Tumor volume was calculated according to the formula (length×width^2 )/2. At the end of each experiment, tumor tissues were subjected to histological analysis.

[6] = system: CGNH-NM, MRCH-92 and U87 MG; experiment: Other 3 cell lines expressing Ca2+-permeable AMPARs: morphology, apoptotic index, Ki-67 index, migration; format: cell-based, human
CGNH-89 cells [7] = experiment: TUNEL apoptotic index in CGNH-89 cells; format: cell-based, human; conditions: 10 μM YM872, 2 days, n=4
Source text: The present inventors next estimated the apoptotic index in CGNH-89 cells expressing GluR2 (R) using the terminal deoxynucleotide transferase (TdT)-mediated dUTP nick end labeling (TUNEL) method (Science, 267, 1445-1449, 1995), and compared this value with that in cells infected with only AxCALNLGluR2 (control). The apoptotic index was defined as the number of TUNEL-positive cells divided by the total number of propidium iodine (PI)-positive nuclei per microscopic field. To obtain the mean value in each culture dish, 10 to 15 randomly chosen fields were sampled.
(§2) For TUNEL and cell proliferation assays, cells were plated at a density of 2×10^4/well in Lab-Tek 4-well glass slides filled with the standard culture medium. At 6 hr. after plating, the medium was replaced with glutamate-free medium and cells were infected with the adenoviruses. At 48 hr. after plating, glutamate (100 μM) was added to the medium and cells were fixed at 5 days postinfection. TUNEL assay was performed with an In Situ Cell Death Detection kit (MBL). Cell proliferation assay was performed with anti-Ki-67 monoclonal antibody (Dako) staining indices. Migration assay was performed in a transwell chamber (8 μm pore size) (Corning Corstar Corp.).

CGNH-89 cells [8] = experiment: Ki-67 staining index (proliferation activity) in CGNH-89 cells; format: cell-based, human; conditions: 10 μM YM872, 2 days, n=4
Procedure: There were no significant changes in these 2 indices between cells expressing GluR2 (Q) and overexpressing GluR1.
as §2, with “At 48 hr. after plating, glutamate (100 μM) was added to the medium and cells were fixed at 5 days postinfection.” left out

tumor cells = experiment: Tumor cells cultured in glutamate-free medium, glutamate add-back; format: cell-based, human; conditions: addition of 100 ˜M glutamate after 4˜5 days in glutamate-free medium with 10% dialyzed FCS
Procedure: The endogenous agonist for AMPARs is glutamate. The culture medium in this experiment was supplemented with fetal calf serum (FCS) and contained up to 100 μM glutamate. The presence of glutamate was essential for maintenance of fusiform morphology as well as proliferation of the tumor cells. When the cells were cultured in glutamate-free medium supplemented with 10% dialyzed FCS for 4˜5 days, they became polygonal in shape and the number of apoptotic cells increased. These changes were restored by addition of 100 ˜M glutamate. An obvious question is whether a sufficient concentration of glutamate to activate Ca^2+-permeable AMPARs is actually supplied to proliferating and migrating tumor cells in the brain. It has been shown that implanted glioma cells continue to secrete glutamate, resulting in a detectable elevation of extracellular glutamate, and that gliomas with high glutamate release have a distinct growth advantage (Nature Med., 7, 1010-1015, 2001).

[9] = 22 days after tumor inoculation
[10] = other 3 cell lines (CGNH-NM, MRCH-92, U87 MG)

T1 sequence (P42261 19-906): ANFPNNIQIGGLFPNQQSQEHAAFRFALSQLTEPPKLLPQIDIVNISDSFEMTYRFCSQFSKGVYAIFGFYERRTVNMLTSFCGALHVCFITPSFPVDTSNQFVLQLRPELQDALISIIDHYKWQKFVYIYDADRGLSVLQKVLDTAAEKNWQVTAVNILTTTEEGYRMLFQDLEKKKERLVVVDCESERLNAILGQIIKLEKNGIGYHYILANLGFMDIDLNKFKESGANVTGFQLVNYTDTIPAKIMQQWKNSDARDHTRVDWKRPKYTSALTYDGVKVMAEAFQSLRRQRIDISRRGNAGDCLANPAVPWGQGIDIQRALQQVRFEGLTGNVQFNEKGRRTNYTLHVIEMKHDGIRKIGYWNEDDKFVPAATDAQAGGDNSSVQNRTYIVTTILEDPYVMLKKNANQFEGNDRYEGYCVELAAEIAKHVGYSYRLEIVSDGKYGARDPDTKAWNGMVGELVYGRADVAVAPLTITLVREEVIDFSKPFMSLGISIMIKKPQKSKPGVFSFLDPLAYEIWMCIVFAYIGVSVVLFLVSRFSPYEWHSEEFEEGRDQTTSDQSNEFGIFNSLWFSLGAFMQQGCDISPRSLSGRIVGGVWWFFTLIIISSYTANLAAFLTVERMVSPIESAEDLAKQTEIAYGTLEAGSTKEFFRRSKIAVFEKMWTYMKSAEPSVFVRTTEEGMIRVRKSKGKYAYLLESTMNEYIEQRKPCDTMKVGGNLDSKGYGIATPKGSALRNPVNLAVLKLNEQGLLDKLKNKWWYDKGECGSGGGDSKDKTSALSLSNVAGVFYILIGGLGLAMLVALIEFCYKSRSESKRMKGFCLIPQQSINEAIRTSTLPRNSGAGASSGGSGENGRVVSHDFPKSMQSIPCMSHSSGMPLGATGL

## Nc1ncnc2c1ncn2[C@@H]1O[C@H](COP(=O)(O)OP(=O)(O)OP(=O)(O)O)[C@@H](O)[C@H]1O [ATP]
CGNH-89 cells [1]
  [Ca^2+]i after application of ATP: 1574 ± 161 nM

## NS(=O)(=O)c1cccc2c1c([N+](=O)[O-])cc1nc(O)c(O)nc12 [NBQX, 2,3-dihydroxy-6-nitro-7-sulfamoyl-benzo(F)-quinoxaline]
CGNH-89 cells [2]; 20 μM NBQX for 2 days
  change in cell morphology: retraction of cytoplasmic processes, enlarged and flattened somata

## [K+] [K^+]
[3]; 100 mM K^+
  effect on [Ca^2+]i: did not increase

## Cc1onc(O)c1CC(N)C(=O)O (stereo not drawn) [AMPA, α-amino-3-hydroxy-5-methyl-4-isoxazole propionic acid]
[4]; 10 culture dishes
  control cells in which [Ca^2+]i increased: 52±14%
[4]; control CGNH-89 cells, n=350
  [Ca^2+]i during application of AMPA together with CTZ: 275 ± 50 nM

## O.O=C(O)Cn1c(=O)c(=O)[nH]c2cc([N+](=O)[O-])c(-n3ccnc3)cc21 [YM872, [2,3-dioxo-7-(1H-imidazol-1-yl)-6-nitro-1,2,3,4-tetrahydroquinoxalin-1-yl]acetic acid monohydrate]
[5]; [9]
  apoptotic cells in tumor tissues (histology): a large number of apoptotic cells
  mitotic cells in tumor tissues (histology): scarcely detected
[5]; YM872 intraperitoneal, 100 mg/kg
  further effect on tumor expressing GulR2: no further inhibitory effects
[5]; YM872 intraperitoneal, 100 mg/kg daily, vs PBS, n=12
  size of tumor: significantly reduced
[5]; YM872 intraperitoneal, 100 mg/kg, n=12
  growth of tumor expressing GluR2 (Q): inhibited
[5]; application of YM872
  proliferation of tumor cells expressing GluR2 (Q) (histology): inhibited
[5]; daily intraperitoneal 10, 50 and 100 mg/kg for 2 weeks
  inhibition of tumor growth, dose dependence: Dose-dependent inhibition
[5]; treatment with YM872
  tumor proliferation in cells expressing GluR2 (histology): no further inhibition
[3]; 10 μM YM872
  effect on AMPA-induced increase in [Ca^2+]i: selectively abolished
[6]; [10]
  Ki-67 staining index: decreased
  apoptotic index: increased
[6]; other 3 cell lines expressing Ca^2+-permeable AMPARs
  cell migration: inhibited the cell migration
CGNH-89 cells [7]
  apoptotic index: 18.0±2.5%
CGNH-89 cells [2]; 10 μM YM872 for 2 days
  change in cell morphology: retraction of cytoplasmic processes, enlarged and flattened somata
CGNH-89 cells [8]
  Ki-67 staining index: < 0.1%

## N[C@@H](CCC(=O)O)C(=O)O [glutamate]
Tumor cells
  polygonal shape and increased apoptotic cells caused by glutamate-free medium: restored
